Data set [1] relates to mice. Briefly: Respiration by whole-body plethysmography. The class given is in vivo, mouse. The settings on record: 0.1 mg/kg.
For data set [2], the system named is mice. In words: Warm-water tail immersion. The format is in vivo, mouse. The settings on record: mice.
The subject of data set [3] is mice. In words: Spontaneous locomotor activity. The settings on record: 30 min.
Data set [4] has as its system mice. Briefly: Tolerance and cross tolerance. Particulars: day 5; 0.1 mg/kg NMF vs 10 mg/kg morphine.
A further data set concerns rats. The settings on record: rat, in vivo, iv.
The test system of a further data set is Caco-2 cell monolayer. Briefly: Caco-2 permeability assay. The settings on record: 10 μM; ± SEM. (In general: Caco-2 cells form a polarised layer with tight junctions and transporters.)

Consider 1 compound from article PMC10243363 (ACS chemical neuroscience, 2022).

With `CN(C(=O)/C=C/c1ccoc1)[C@@H]1CC[C@@]2(O)[C@H]3Cc4ccc(O)c5c4[C@@]2(CCN3CC2CC2)[C@H]1O5.Cl` [Compound 11, (2E)-N-[6β-17-(Cyclopropylmethyl)-3,14-dihydroxy-4,5α-epoxy-morphinan-6-yl]-3-(3-furanyl)-N-methyl-2-propenamide hydrochloride], in the data set with mice [1], the “Effects on respiration (frequency, minute volume, tidal volume)” value is given as “no significant effects on the respiration”. Further, the Duration of antinociception result in the data set on mice [2] (0.1 mg/kg s.c.) is reported as “approximately 3 hours”. Also, the “Calculated ED90 of antinociception” value with mice [2] (s.c.) is 0.1 mg/kg. The “Antinociception potency ED50 (95% CL)” value with mice [2] (s.c., 20 min after injection) was 0.037 (0.014 - 0.096) mg/kg. In the data set on mice [2] (time-course study, s.c.), the “Time of peak antinociceptive effect” value was “around 0.5 h”. Moreover, the “Activity-reducing (sedative) effects on locomotor activity” value in the data set on mice [3] (0.1 mg/kg or 0.5 mg/kg s.c.) is on record as “no significant activity-reducing effects”. Also, the “Hyperactivity in locomotor activity test” value in the data set with mice [3] (s.c.) is recorded as “no significant hyperactivity”. For the same compound, the “Antinociceptive effect in morphine-tolerated mice (cross tolerance)” value in the data set with mice [4] is given as “retained a higher antinociceptive effect than morphine”. Besides, in the data set with rats, the “Reinforcing effect in self-administration (number of infusions vs saline)” value was “non-reinforcer”. For the same compound, the “B-A Permeability” value with Caco-2 cell monolayer is 31.8 ± 0.8 x10^−6 cm/s.
